# Reference: article PMC6934184, “Selective DNA-PKcs inhibition extends the therapeutic index of localized radiotherapy and chemotherapy” (The Journal of Clinical Investigation, 2019)
# Biological target: T1, PTK6 (Brk) (Homo sapiens, UniProt Q13882)
# T1 construct: purchased Thermo Fisher Scientific (Life Technologies) SelectScreen
# Assay: SelectScreen Z'LYTE
# Type: biochemical
# In short: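 Percent values come from Thermo SelectScreen profiling of NU5455, combining activity and binding assays. CSF1R was run in Z'LYTE format at Km app ATP, and CAMK1 in Adapta format with ATP listed at 10.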
# T1 sequence (Q13882 whole entry): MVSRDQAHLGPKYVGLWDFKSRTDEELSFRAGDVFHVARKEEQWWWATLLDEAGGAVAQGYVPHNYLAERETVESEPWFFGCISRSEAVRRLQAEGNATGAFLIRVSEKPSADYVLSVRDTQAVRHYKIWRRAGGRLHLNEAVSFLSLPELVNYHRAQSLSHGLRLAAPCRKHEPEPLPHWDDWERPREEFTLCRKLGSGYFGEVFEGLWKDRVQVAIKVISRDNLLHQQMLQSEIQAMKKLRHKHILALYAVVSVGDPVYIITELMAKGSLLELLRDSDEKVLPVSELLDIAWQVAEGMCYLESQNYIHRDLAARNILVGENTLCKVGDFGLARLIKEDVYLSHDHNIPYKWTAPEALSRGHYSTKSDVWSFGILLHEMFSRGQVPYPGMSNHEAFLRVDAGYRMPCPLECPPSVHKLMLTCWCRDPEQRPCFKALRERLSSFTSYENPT
smiles,measurement,value
CN(C(=O)CN1CCOCC1)c1ccc2sc3c(-c4cccc5c(=O)cc(N6CC7CCC(C6)O7)oc45)cccc3c2c1 [NU5455],inhibition at 1 µM,0.7%
